Laboratory results as given in paper PMC12396409, “Screening and hit evaluation of a microbial metabolite library against the pathogenic Plasmodium falciparum and Toxoplasma gondii parasites” (International Journal for Parasitology: Drugs and Drug …, 2025).
Where two headings read alike, the source gives them in different places.

Experiments:
[1] = system: P. falciparum 3D7 parasites; assay: P. falciparum growth inhibition assay, 2-cycle (120 h treatment), delayed-death screen and dose-response; assay type: cell-based, Plasmodium falciparum; settings: for activity at 2 µg/mL: Plasmodium falciparum, 3D7
[2] = system: T. gondii RH strain (RH-Tub-eYFP) tachyzoites; assay: microbe, parasite or virus in culture; assay type: cell-based, Toxoplasma gondii; settings: 72 h; for Tg_72h_%Growth_Rep1: replicate 1; for Tg_72h_%Growth_Rep2: replicate 2; for percent parasite growth at 2 µg/mL: Toxoplasma gondii
[3] = system: P. falciparum 3D7 parasites; assay: P. falciparum growth inhibition assay, 1-cycle (72 h treatment), SYBR DNA staining (library screen at 2 μg/mL and dose-response); assay type: cell-based, Plasmodium falciparum; settings: for activity at 2 µg/mL: Plasmodium falciparum, 3D7
[4] = T. gondii, parasite screen at 2 μg/mL, % growth
[5] = P. falciparum, 120 h, screen at 2 μg/mL, replicate 1
[6] = P. falciparum, 120 h, screen at 2 μg/mL, replicate 2
[7] = P. falciparum, 72 h, screen at 2 μg/mL, replicate 1
[8] = P. falciparum, 72 h, screen at 2 μg/mL, replicate 2
[9] = library screen at 2 μg/mL, 120 h, % growth, replicate 1
[10] = library screen at 2 μg/mL, 120 h, % growth, replicate 2
[11] = T. gondii, 2 μg/mL, values are growth (% of control)
[12] = library screen at 2 μg/mL, % growth
[13] = library screen at 2 μg/mL, 72 h, % growth, replicate 1
[14] = library screen at 2 μg/mL, 72 h, % growth, replicate 2
[15] = T. gondii RH, library screen at 2 μg/mL, % growth
[16] = T. gondii, parasite screen 2 μg/mL, % growth

Cn1c2ccccc2c(=O)c2c(O)cc3c(c21)C=CC(C)(C)O3 [BIA-N1949]
Pf_120h_%Growth_Rep1 ([1]; P. falciparum 3D7, 120 h, parasite screen at 2 μg/mL, % growth, replicate 1): 85.11%
Pf_120h_%Growth_Rep2 ([1]; P. falciparum 3D7, 120 h, parasite screen at 2 μg/mL, % growth, replicate 2): 95.19%
Tg_72h_%Growth_Rep1 [2, 4]: 111.30%
Tg_72h_%Growth_Rep2 [2, 4]: 95.22%
Pf_72h_%Growth_Rep1 ([3]; P. falciparum 3D7, 72 h, parasite screen at 2 μg/mL, % growth, replicate 1): 90.51%
Pf_72h_%Growth_Rep2 ([3]; P. falciparum 3D7, 72 h, parasite screen at 2 μg/mL, % growth, replicate 2): 117.30%

CCCNC[C@]1(O)[C@H](C)O[C@@H](O[C@H]2[C@H](C)[C@@H](O[C@@H]3O[C@H](C)C[C@H](N(C)C)[C@H]3O)[C@](C)(O)C[C@@H](C)CN[C@H](C)[C@@H](O)[C@](C)(O)[C@@H](CC)OC(=O)[C@@H]2C)C[C@@]1(C)OC [Tulathromycin, reference compound]
2) Growth (%) at 120 h ([1]; P. falciparum, 2 μg/mL, 120 h): 16.75%
Pf_120h_%Growth_Rep1 [1, 5]: 21.75%
Pf_120h_%Growth_Rep2 [1, 6]: 11.74%
3) Fold change (72 h/120 h) ([1]; P. falciparum, growth at 72 h / growth at 120 h, 2 μg/mL): 2.0
Tg_72h_%Growth_Rep1 ([2]; T. gondii, screen at 2 μg/mL): 76.92%
Tg_72h_%Growth_Rep2 ([2]; T. gondii, screen at 2 μg/mL): 80.94%
1) Growth (%) at 72 h ([3]; P. falciparum, 2 μg/mL, 72 h): 33.53%
Pf_72h_%Growth_Rep1 [3, 7]: 33.36%
Pf_72h_%Growth_Rep2 [3, 8]: 33.69%

O=C1NC(c2c[nH]c3ccccc23)=C/C1=C1\C(=O)Nc2ccccc21 [Deoxyviolacein]
Pf_120h_%Growth_Rep1 [1, 9]: 11.68%
Pf_120h_%Growth_Rep2 [1, 10]: 9.06%
Mean ([2]; T. gondii, 2 μg/mL, mean of both replicates, growth (% of control)): 20.63
Replicate 1 [2, 11]: 14.71
Replicate 2 [2, 11]: 26.55
Tg_72h_%Growth_Rep1 [2, 12]: 14.71%
Tg_72h_%Growth_Rep2 [2, 12]: 26.55%
Pf_72h_%Growth_Rep1 [3, 13]: 4.36%
Pf_72h_%Growth_Rep2 [3, 14]: 20.63%

CO[C@H]1C[C@H](O[C@@H]2/C(C)=C/C[C@@H]3C[C@@H](C[C@]4(CC[C@H](C)[C@@H](C5CCCCC5)O4)O3)OC(=O)[C@@H]3C=C(C)/C(=N/O)[C@H]4OC/C(=C\C=C\[C@@H]2C)[C@]43O)O[C@@H](C)[C@@H]1O [selamectin, reference compound]
activity at 2 µg/mL ([1]; P. falciparum, 120 h, parasite screen 2 μg/mL, % growth, replicate 1, read-out: Pf_120h_%Growth_Rep1): 2.99%
activity at 2 µg/mL ([1]; P. falciparum, 120 h, parasite screen 2 μg/mL, % growth, replicate 2, read-out: Pf_120h_%Growth_Rep2): 8.34%
percent parasite growth at 2 µg/mL ([2]; read-out: Tg_72h_%Growth_Rep1): 116%
percent parasite growth at 2 µg/mL ([2]; read-out: Tg_72h_%Growth_Rep2): 78.2%
selectivity for P. falciparum in the screens [3]: selective for P. falciparum
activity at 2 µg/mL ([3]; P. falciparum, 72 h, parasite screen 2 μg/mL, % growth, replicate 1, read-out: Pf_72h_%Growth_Rep1): 3.56%
activity at 2 µg/mL ([3]; P. falciparum, 72 h, parasite screen 2 μg/mL, % growth, replicate 2, read-out: Pf_72h_%Growth_Rep2): 6.13%

CC(=O)O[C@@H]1C[C@]2(C)[C@@]3(CO)[C@H](O)C(=O)C(C)=C[C@H]3O[C@H]1[C@@]21CO1 [Acetyldeoxynivalenol, 3-]
Pf_120h_%Growth_Rep1 [1, 9]: 14.50%
Pf_120h_%Growth_Rep2 [1, 10]: 5.88%
Tg_72h_%Growth_Rep1 [2, 12]: 4.23%
Tg_72h_%Growth_Rep2 [2, 12]: 6.65%
Pf_72h_%Growth_Rep1 [3, 13]: 11.16%
Pf_72h_%Growth_Rep2 [3, 14]: 9.81%

C/C=C(\C)c1cc(O)c(C)c2c1Oc1cc(O)cc(C)c1C(=O)O2 [Unguinol]
Pf_120h_%Growth_Rep1 [1, 5]: 111.35%
Pf_120h_%Growth_Rep2 [1, 6]: 108.43%
Tg_72h_%Growth_Rep1 ([2]; T. gondii, screen at 2 μg/mL): 147.94%
Tg_72h_%Growth_Rep2 ([2]; T. gondii, screen at 2 μg/mL): 82.86%
Pf_72h_%Growth_Rep1 [3, 7]: 95.05%
Pf_72h_%Growth_Rep2 [3, 8]: 130.12%

O=c1cc2ccocc-2o1 [BIA-K1792]
Pf_120h_%Growth_Rep1 ([1]; P. falciparum 3D7, 120 h, library screen at 2 μg/mL, % growth, replicate 1): 89.46%
Pf_120h_%Growth_Rep2 ([1]; P. falciparum 3D7, 120 h, library screen at 2 μg/mL, % growth, replicate 2): 104.67%
Tg_72h_%Growth_Rep1 [2, 15]: 114.69%
Tg_72h_%Growth_Rep2 [2, 15]: 93.25%
Pf_72h_%Growth_Rep1 ([3]; P. falciparum 3D7, 72 h, library screen at 2 μg/mL, % growth, replicate 1): 80.31%
Pf_72h_%Growth_Rep2 ([3]; P. falciparum 3D7, 72 h, library screen at 2 μg/mL, % growth, replicate 2): 115.37%

Spirolaxine
Pf_120h_%Growth_Rep1 ([1]; P. falciparum, 120 h, parasite screen 2 μg/mL, % growth, replicate 1): 32.74%
Pf_120h_%Growth_Rep2 ([1]; P. falciparum, 120 h, parasite screen 2 μg/mL, % growth, replicate 2): 18.31%
Tg_72h_%Growth_Rep1 [2, 16]: 20.75%
Tg_72h_%Growth_Rep2 [2, 16]: 22.73%
Pf_72h_%Growth_Rep1 ([3]; P. falciparum, 72 h, parasite screen 2 μg/mL, % growth, replicate 1): 54.30%
Pf_72h_%Growth_Rep2 ([3]; P. falciparum, 72 h, parasite screen 2 μg/mL, % growth, replicate 2): 41.64%

CC(=O)OC[C@@H](NC(=O)C(Cl)Cl)[C@H](O)c1ccc([N+](=O)[O-])cc1 [Chloramphenicol acetate]
Pf_120h_%Growth_Rep1 [1, 5]: 100.35%
Pf_120h_%Growth_Rep2 [1, 6]: 90.22%
Tg_72h_%Growth_Rep1 ([2]; T. gondii, screen at 2 μg/mL): 132.16%
Tg_72h_%Growth_Rep2 ([2]; T. gondii, screen at 2 μg/mL): 92.80%
Pf_72h_%Growth_Rep1 [3, 7]: 90.71%
Pf_72h_%Growth_Rep2 [3, 8]: 92.14%
